According to patent US20240092784A1, “CONDENSED HETEROCYCLIC COMPOUND” (NISSAN CHEMICAL CORPORATION, priority 2020, published 2024):

target: T1, human SPR (Homo sapiens (Human), UniProt P35270); experiment: Evaluation Example 2: Measurement of human SPR inhibitory activity (seven concentrations, sepiapterin absorbance at 420 nm); format: biochemical; settings: Evaluation Example 2, seven concentrations 0.14 nM to 100 nM, 240 minutes at room temperature, read-out: IC50
Method in brief: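 Reactions ran 240 min at room temperature in 100 mM Tris-HCl pH 7.5 with 0.01% BSA. They contained tag-cleaved, E. coli-expressed full-length human SPR (diluted to 150 ng/mL), seven compound concentrations from 0.14 to 100 nM, and sepiapterin/NADPH added as a 120 μM/160 μM solution. Inhibition was calculated from sepiapterin absorbance at 420 nm.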

T1 sequence (P35270 whole entry): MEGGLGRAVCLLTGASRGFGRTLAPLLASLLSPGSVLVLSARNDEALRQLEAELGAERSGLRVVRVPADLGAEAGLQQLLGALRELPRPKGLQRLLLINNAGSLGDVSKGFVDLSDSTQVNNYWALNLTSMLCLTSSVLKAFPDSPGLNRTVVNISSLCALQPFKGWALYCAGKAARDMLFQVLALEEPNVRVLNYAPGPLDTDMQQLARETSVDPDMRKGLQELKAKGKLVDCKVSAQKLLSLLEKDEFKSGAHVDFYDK

SMILES	IC50 [nM]
CC(C)Cn1c(=O)c(C(=O)NC2CC2)c(O)n2ncc(/C=C/C(=O)N3CCC[C@@H]3c3ccccc3)c12 [compound 607, (R,E)-N-Cyclopropyl-7-hydroxy-4-isobutyl-5-oxo-3-(3-oxo-3-(2-phenylpyrrolidin-1-yl)prop-1-en-1-yl)-4,5-dihydropyrazolo[1,5-a]pyrimidine-6-carboxamide]	1.67
Cc1nn2c(O)c(C(=O)NC3CC3)c(=O)n(CC(C)C)c2c1/C=C/C(=O)N1CC2C(C1)C2(F)F (stereo not drawn) [compound 608, (E)-N-Cyclopropyl-3-(3-(6,6-difluoro-3-azabicyclo[3.1.0]hexan-3-yl)-3-oxoprop-1-en-1-yl)-7-hydroxy-4-isobutyl-2-methyl-5-oxo-4,5-dihydropyrazolo[1,5-a]pyrimidine-6-carboxamide]	1.07
CC[C@@H]1CCCN1C(=O)/C=C/c1c(C)nn2c(O)c(C(=O)NC3CC3)c(=O)n(CC(C)C)c12 [compound 610, (R,E)-N-Cyclopropyl-3-(3-(2-ethylpyrrolidin-1-yl)-3-oxoprop-1-en-1-yl)-7-hydroxy-4-isobutyl-2-methyl-5-oxo-4,5-dihydropyrazolo[1,5-a]pyrimidine-6-carboxamide]	1.64
Cc1nn2c(O)c(C(=O)NC3CC3)c(=O)n(CC(C)C)c2c1/C=C/C(=O)N1CCC[C@@H]1C(C)(C)O [compound 611, (R,E)-N-Cyclopropyl-7-hydroxy-3-(3-(2-(2-hydroxypropan-2-yl)pyrrolidin-1-yl)-3-oxoprop-1-en-1-yl)-4-isobutyl-2-methyl-5-oxo-4,5-dihydropyrazolo[1,5-a]pyrimidine-6-carboxamide]	1.22

target: T1, human SPR; experiment: Evaluation Example 1: Measurement of human SPR inhibitory activity (sepiapterin absorbance at 420 nm); format: biochemical; settings: 240 minutes at room temperature
Experimental: Human SPR was prepared as described below. The full-length human SPR (1-261) cDNA was purchased from Eurofins Genomics as an artificially synthesized plasmid containing a DNA sequence optimized for the E. coli expression system so that the sequence of the expressed protein after transcription and translation matches the sequence described in UniprotKB (P35270).
Linearized insert and vector were prepared by PCR using primers designed for amplification of human SPR cDNA and primers designed to contain the thrombin recognition sequence of pET28a (Novagen) and a polyhistidine tag. Cloning was performed using In-Fusion (registered trademark) HD Cloning Kit (TaKaRa) to thereby construct a human SPR expression plasmid. The resultant human SPR expression plasmid was transformed into BL21 (DE3) competent cells (INVITROGEN).
The cells were inoculated into LB medium (1% triptone, 0.5% yeast extract, 1% sodium chloride) containing […] of kanamycin, and then precultured at 37° C. overnight. The precultured cells were inoculated into TB medium (1.2% triptone, 2.4% yeast extract, 9.4% dipotassium hydrogen phosphate, 2.2% potassium dihydrogen phosphate, 0.8% glycerin) containing […] of kanamycin, and the cultured at 37° C., to thereby induce SPR expression with 0.5 mM IPTG for four hours. After the induction, the cells were collected by centrifugation at 6,000 G for 30 minutes and washed with PBS, and the washing was discarded. The washed cells were suspended in buffer solution A (20 mM MES, pH 6.5, 100 mM sodium chloride, 1 mM DTT, 5 mM imidazole). Subsequently, the cell suspension was subjected to ultrasonic treatment to thereby homogenize the cells. The cell homogenate was clarified by centrifugation at 30,000 G for 60 minutes and then filtered with a […]. The filtrate was allowed to pass through HisTrapFF 5 mL column (GE Healthcare). The resin was washed with buffer A, and then gradient elution was performed with buffer B (20 mM MES, pH 6.5, 100 mM sodium chloride, 1 mM DTT, 500 mM imidazole). Thrombin was added to a fraction containing the SPR protein, and the mixture was dialyzed in buffer A overnight, to thereby cleave the tag. After removal of the thrombin by with Benzamidine Sepharose 4 FF (GE Healthcare), the resultant product was allowed to pass through the HisTrapFF 5 mL column, to thereby remove the tag, followed by concentration with Amicon Ultra 10,000 NMWL (Merck Millipore). The concentrate was purified by gel filtration using HiLoad 16/60 Superdex 75 pg (GE Healthcare) equilibrated with buffer C (20 mM MES, pH 6.5, 100 mM sodium chloride, 1 mM DTT). The fraction containing SPR protein was concentrated and then cryopreserved at −80° C.
Human SPR inhibitory activity was measured by using a 384-well low adsorption clear plate (Greiner) with buffer D containing 100 mM Tris-HCl (pH 7.5) (Thermo Fisher Scientific) and 0.01% bovine serum albumin (Sigma). A compound was diluted with DMSO to a concentration of 1 mM, and a 1 μL aliquot of the preparation was diluted with 250 μL of buffer D. The thus-diluted compound was dispensed into the 384-well plate at […]. Thereafter, human SPR was diluted with buffer D to 200 ng/mL and then dispensed into the 384-well plate at 20 μL/well. Subsequently, 40 μL of ultrapure water containing 120 μM Sepiapterin (WuXi AppTec) and 120 μM NADPH (Nacalai) was added to each well, and mixed with a vortex mixer, to thereby initiate the reaction. The reaction mixture was incubated at room temperature for 240 minutes, and the reaction was terminated by addition of 10 μL of ultrapure water containing 2% formic acid (Nacalai). In order to determine the amount of sepiapterin after termination of the reaction, the absorbance at 420 nm was measured by applying the 384-well plate to EnSpire multimode plate reader (Perkin Elmer). The percent inhibition (%) of human SPR by the test compound was calculated by the following formula. […]

SMILES	IC50 [nM]
CCOC(=O)c1cc2n(CC(C)(C)C)c(=O)c(C(=O)NC3CC3)c(O)n2n1 [Synthesis Example 1, Ethyl 6-(cyclopropylcarbamoyl)-7-hydroxy-4-neopentyl-5-oxo-4,5-dihydropyrazolo[1,5-a]pyrimidine-2-carboxylate]	< 1000
CC(C)(C)Cn1c(=O)c(C(=O)NC2CC2)c(O)n2nc(C(=O)O)cc12 [Synthesis Example 2, 6-(Cyclopropylcarbamoyl)-7-hydroxy-4-neopentyl-5-oxo-4,5-dihydropyrazolo[1,5-a]pyrimidine-2-carboxylic acid]	< 1000
CC(C)(C)Cn1c(=O)c(C(=O)NC2CC2)c(O)n2nc(NC(=O)OC(C)(C)C)cc12 [Synthesis Example 3, Tert-butyl (6-(cyclopropylcarbamoyl)-7-hydroxy-4-neopentyl-5-oxo-4,5-dihydropyrazolo[1,5-a]pyrimidin-2-yl)carbamate]	< 1000
CCOC(=O)c1cnn2c(O)c(C(=O)NC3CC3)c(=O)n(CC(C)C)c12 [Synthesis Example 5, Ethyl 6-(cyclopropylcarbamoyl)-7-hydroxy-4-isobutyl-5-oxo-4,5-dihydropyrazolo[1,5-a]pyrimidine-3-carboxylate]	< 1000
CC(C)Cn1c(=O)c(C(=O)NC2CC2)c(O)n2ncc(C=O)c12 [Synthesis Example 7, N-Cyclopropyl-3-formyl-7-hydroxy-4-isobutyl-5-oxo-4,5-dihydropyrazolo[1,5-a]pyrimidine-6-carboxamide]	< 1000
CC(C)Cn1c(=O)c(C(=O)NC2CC2)c(O)n2ncc(/C=C/C(=O)O)c12 [Synthesis Example 9, (E)-3-(6-(Cyclopropylcarbamoyl)-7-hydroxy-4-isobutyl-5-oxo-4,5-dihydropyrazolo[1,5-a]pyrimidin-3-yl)acrylic acid]	< 1000
CC(C)(C)Cn1c(=O)c(C(=O)NC2CC2)c(O)n2nc(Br)cc12 [Synthesis Example 11, 2-Bromo-N-cyclopropyl-7-hydroxy-4-neopentyl-5-oxo-4,5-dihydropyrazolo[1,5-a]pyrimidine-6-carboxamide]	< 1000
COC(=O)c1cnc(Nc2cc3n(CC(C)(C)C)c(=O)c(C(=O)NC4CC4)c(O)n3n2)cn1 [Synthesis Example 19, Methyl 5-((6-(cyclopropylcarbamoyl)-7-hydroxy-4-neopentyl-5-oxo-4,5-dihydropyrazolo[1,5-a]pyrimidin-2-yl)amino)pyrazine-2-carboxylate]	< 1000
CC(C)(C)Cn1c(=O)c(C(=O)NC2CC2)c(O)n2nc(Nc3cnc(C(=O)O)cn3)cc12 [Synthesis Example 20, 5-((6-(Cyclopropylcarbamoyl)-7-hydroxy-4-neopentyl-5-oxo-4,5-dihydropyrazolo[1,5-a]pyrimidin-2-yl)amino)pyrazine-2-carboxylic acid]	< 1000
CC(C)Cn1c(=O)c(C(=O)NC2CC2)c(O)n2nc(Br)cc12 [Synthesis Example 22, 2-Bromo-N-cyclopropyl-7-hydroxy-4-isobutyl-5-oxo-4,5-dihydropyrazolo[1,5-a]pyrimidine-6-carboxamide]	< 1000
CC(C)Cn1c(=O)c(C(=O)NC2CC2)c(O)n2nc(-c3cccnc3N)cc12 [Synthesis Example 24, 2-(2-Aminopyridin-3-yl)-N-cyclopropyl-7-hydroxy-4-isobutyl-5-oxo-4,5-dihydropyrazolo[1,5-a]pyrimidine-6-carboxamide]	< 1000
CC(C)(C)Cn1c(=O)c(C(=O)NC2CCC2)c(O)n2nc(Br)cc12 [Synthesis Example 25, 2-Bromo-N-cyclobutyl-7-hydroxy-4-neopentyl-5-oxo-4,5-dihydropyrazolo[1,5-a]pyrimidine-6-carboxamide]	< 1000
CC(C)(C)Cn1c(=O)c(C(=O)NC2CCC2)c(O)n2nc(Nc3cnccn3)cc12 [Synthesis Example 26, N-Cyclobutyl-7-hydroxy-4-neopentyl-5-oxo-2-(pyrazin-2-ylamino)-4,5-dihydropyrazolo[1,5-a]pyrimidine-6-carboxamide]	< 1000
CC1(Cn2c(=O)c(C(=O)NC3CC3)c(O)n3nc(Br)cc23)CCOCC1 [Synthesis Example 27, 2-Bromo-N-cyclopropyl-7-hydroxy-4-((4-methyltetrahydro-2H-pyran-4-yl)methyl)-5-oxo-4,5-dihydropyrazolo[1,5-a]pyrimidine-6-carboxamide]	< 1000
CC1(Cn2c(=O)c(C(=O)NC3CC3)c(O)n3nc(Nc4cnccn4)cc23)CCOCC1 [Synthesis Example 28, N-Cyclopropyl-7-hydroxy-4-((4-methyltetrahydro-2H-pyran-4-yl)methyl)-5-oxo-2-(pyrazin-2-ylamino)-4,5-dihydropyrazolo[1,5-a]pyrimidine-6-carboxamide]	< 1000
CC1(Cn2c(=O)c(C(=O)NC3CC3)c(O)n3nc(-c4cccnc4N)cc23)CCOCC1 [Synthesis Example 29, 2-(2-Aminopyridin-3-yl)-N-cyclopropyl-7-hydroxy-4-((4-methyltetrahydro-2H-pyran-4-yl)methyl)-5-oxo-4,5-dihydropyrazolo[1,5-a]pyrimidine-6-carboxamide]	< 1000
CC1(Cn2c(=O)c(C(=O)NC3CCC3)c(O)n3nc(Br)cc23)CCOCC1 [Synthesis Example 30, 2-Bromo-N-cyclobutyl-7-hydroxy-4-((4-methyltetrahydro-2H-pyran-4-yl)methyl)-5-oxo-4,5-dihydropyrazolo[1,5-a]pyrimidine-6-carboxamide]	< 1000
